The values that follow come from patent US12448388B2, “PRMT5 inhibitors and uses thereof” (Gilead Sciences, Inc., priority 2023, dated 2025).

Like-named read-outs stand apart in the source and are kept apart here.

For this test, the system named is HCT116 MTAP-deleted cell lines. The experiment in a line: Cell viability assay (CellTiter-Glo, 7 days), HCT116 MTAP-deleted. Type of test: cell-based. The settings on record: Homo sapiens, HCT-116. Summed up: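 Read-out was CellTiter-Glo luminescence after a 7-day incubation (37 °C, 5% CO2) of HCT116 cells, MTAP-deleted or WT, on dose-response compound plates. CC50 values come from each line; where marked *, selectivity is overstated because poor solubility impaired the WT CC50 measurement.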

The mark [1] stands for this setting: cell viability, HCT116 MTAP-deleted, class symbols, read-out: CC50.

Turning to `Cc1ncn2c1c(N)nc1cnc(C(=O)N3CCC[C@@H]4Oc5c(ccc(C(F)(F)F)c5F)[C@@H]43)cc12` [Ff-119, (4-amino-3-methylimidazo[1,5-a]pyrido[3,4-e]pyrazin-8-yl)((4aS,9bS)-6-fluoro-7-(trifluoromethyl)-3,4,4a,9b-tetrahydrobenzofuro[3,2-b]pyridin-1(2H)-yl)methanone], the CC50 under setting [1] was below 100 nM.
Consider `Nc1nc2cc(F)c(C(=O)N3C[C@@H](F)C[C@@H]4Oc5cc(C(F)(F)F)ccc5[C@@H]43)cc2n2cncc12` [Ff-120, (4-amino-7-fluoroimidazo[1,5-a]quinoxalin-8-yl)((3S,4aS,9bS)-3-fluoro-7-(trifluoromethyl)-3,4,4a,9b-tetrahydrobenzofuro[3,2-b]pyridin-1(2H)-yl)methanone], for which the CC50 under setting [1] is below 100 nM.
Same read-out and setting: as for `Cc1ncc2c(N)nc3ccc(C(=O)N4CCC[C@@H]5Oc6c(ccc(C(F)(F)F)c6F)[C@@H]54)cc3n12` [Ff-122, (4-amino-1-methylimidazo[1,5-a]quinoxalin-8-yl)((4aS,9bS)-6-fluoro-7-(trifluoromethyl)-3,4,4a,9b-tetrahydrobenzofuro[3,2-b]pyridin-1(2H)-yl)methanone], the figure is below 100 nM; as for `CN(Cc1ccc2c(c1)OC(F)(F)O2)C(=O)c1ccc2nc(N)c3cncn3c2c1` [Ff-123, 4-amino-N-((2,2-difluorobenzo[d][1,3]dioxol-5-yl)methyl)-N-methylimidazo[1,5-a]quinoxaline-8-carboxamide], 100 to 1000 nM.
On to `CN(Cc1ccc2c(c1)OC(F)(F)O2)C(=O)c1cc2c(cc1F)nc(N)c1cncn12` [Ff-124, 4-amino-N-((2,2-difluorobenzo[d][1,3]dioxol-5-yl)methyl)-7-fluoro-N-methylimidazo[1,5-a]quinoxaline-8-carboxamide], for which the CC50 under setting [1] fell in the range of 100 to 1000 nM.
For the compound `COc1cc(C(F)(F)F)ccc1CN(C)C(=O)c1ccc2nc(N)c3cncn3c2c1` [Ff-125, 4-amino-N-(2-methoxy-4-(trifluoromethyl)benzyl)-N-methylimidazo[1,5-a]quinoxaline-8-carboxamide], under setting [1], the cytotoxic concentration (CC50) lay within 100 to 1000 nM.
Still for that read-out and setting: under `COCc1cc(C(F)(F)F)ccc1CN(C)C(=O)c1ccc2nc(N)c3cncn3c2c1` [Ff-126, 4-amino-N-(2-(methoxymethyl)-4-(trifluoromethyl)benzyl)-N-methylimidazo[1,5-a]quinoxaline-8-carboxamide] stands 100 to 1000 nM.
As for `Cc1nc2cc([C@H]3CC[C@H](C)CN3C(=O)c3ccc4nc(N)c5cnc(C)n5c4c3)ccc2s1` [Ff-127], the CC50 under setting [1] is 100 to 1000 nM.
Same read-out and setting: under `Nc1nc2cc(F)c(C(=O)N3CCOCC3c3ccc(C(F)(F)F)cn3)cc2n2cncc12` (stereo not shown) [Ff-128, (4-amino-7-fluoroimidazo[1,5-a]quinoxalin-8-yl)(3-(5-(trifluoromethyl)pyridin-2-yl)morpholino)methanone] stands below 100 nM.
Still for that read-out and setting: as for `C[C@@H]1CN(C(=O)c2cc3c(cc2F)nc(N)c2cncn23)[C@@H](c2ccc(C(F)(F)F)cn2)CO1` [Ff-129, (4-amino-7-fluoroimidazo[1,5-a]quinoxalin-8-yl)((2R,5S)-2-methyl-5-(5-(trifluoromethyl)pyridin-2-yl)morpholino)methanone], the figure is below 100 nM; as for `C[C@H]1CN(C(=O)c2cc3c(cc2F)nc(N)c2cncn23)[C@@H](c2ccc(C(F)(F)F)cn2)CO1` [Ff-130, (4-amino-7-fluoroimidazo[1,5-a]quinoxalin-8-yl)((2S,5S)-2-methyl-5-(5-(trifluoromethyl)pyridin-2-yl)morpholino)methanone], below 100 nM; as for `C[C@@H]1COC[C@H](c2ccc(C(F)(F)F)cn2)N1C(=O)c1cc2c(cc1F)nc(N)c1cncn12` [Ff-131, (4-amino-7-fluoroimidazo[1,5-a]quinoxalin-8-yl)((3R,5S)-3-methyl-5-(5-(trifluoromethyl)pyridin-2-yl)morpholino)methanone], below 100 nM.
Take `C[C@@H]1OCCN(C(=O)c2cc3c(cc2F)nc(N)c2cncn23)[C@H]1c1ccc(C(F)(F)F)cn1` [Ff-132, (4-amino-7-fluoroimidazo[1,5-a]quinoxalin-8-yl)((2S,3S)-2-methyl-3-(5-(trifluoromethyl)pyridin-2-yl)morpholino)methanone]: the CC50 under setting [1] was below 100 nM.
Still for that read-out and setting: under `Nc1nc2cc(F)c(C(=O)N3CCCCC3c3ccc(C(F)(F)F)cn3)cc2n2cncc12` (stereo not shown) [Ff-133, (4-amino-7-fluoroimidazo[1,5-a]quinoxalin-8-yl)(2-(5-(trifluoromethyl)pyridin-2-yl)piperidin-1-yl)methanone] stands below 100 nM.
On the same count and under the same terms, as for `CC(=O)N1CCN(C(=O)c2cc3c(cc2F)nc(N)c2cncn23)C(c2ccc(C(F)(F)F)cn2)C1` (stereo not shown) [Ff-134, 1-(4-(4-amino-7-fluoroimidazo[1,5-a]quinoxaline-8-carbonyl)-3-(5-(trifluoromethyl)pyridin-2-yl)piperazin-1-yl)ethan-1-one], the figure is 100 to 1000 nM; as for `CS(=O)(=O)N1CCN(C(=O)c2cc3c(cc2F)nc(N)c2cncn23)C(c2ccc(C(F)(F)F)cn2)C1` (stereo not shown) [Ff-135, (4-amino-7-fluoroimidazo[1,5-a]quinoxalin-8-yl)(4-(methylsulfonyl)-2-(5-(trifluoromethyl)pyridin-2-yl)piperazin-1-yl)methanone], 100 to 1000 nM; as for `CN1CCN(C(=O)c2cc3c(cc2F)nc(N)c2cncn23)C(c2ccc(C(F)(F)F)cn2)C1` (stereo not shown) [Ff-136, (4-amino-7-fluoroimidazo[1,5-a]quinoxalin-8-yl)(4-methyl-2-(5-(trifluoromethyl)pyridin-2-yl)piperazin-1-yl)methanone], 100 to 1000 nM.
Same read-out and setting: as for `Cc1ncn2c1c(N)nc1cc(F)c(C(=O)N3CCOC[C@@H]3c3ccc(C(F)(F)F)cc3)cc12` [Ff-137], the figure is below 100 nM.
As for `Nc1nc2cc(F)c(C(=O)N3CCCC[C@@H]3c3ccc(C(F)(F)F)cc3)cc2n2cncc12` [Ff-139, (R)-(4-amino-7-fluoroimidazo[1,5-a]quinoxalin-8-yl)(2-(4-(trifluoromethyl)phenyl)piperidin-1-yl)methanone], the CC50 under setting [1] was below 100 nM.
Take `Nc1nc2cc(F)c(C(=O)N3CCN(C4COC4)CC3c3ccc(C(F)(F)F)cn3)cc2n2cncc12` (stereo not shown) [Ff-140, (4-amino-7-fluoroimidazo[1,5-a]quinoxalin-8-yl)(4-(oxetan-3-yl)-2-(5-(trifluoromethyl)pyridin-2-yl)piperazin-1-yl)methanone]: the CC50 under setting [1] was 100 to 1000 nM.
Regarding `Nc1nc2cc(F)c(C(=O)N3CCCCC3c3ccc(C(F)(F)F)cc3F)cc2n2cncc12` (stereo not shown) [Ff-141, (4-amino-7-fluoroimidazo[1,5-a]quinoxalin-8-yl)(2-(2-fluoro-4-(trifluoromethyl)phenyl)piperidin-1-yl)methanone], the CC50 under setting [1] is below 100 nM.
Still for that read-out and setting: as for `C[C@@H]1COC[C@H](c2ccc(C(F)(F)F)cn2)N1C(=O)c1cc2c(cn1)nc(N)c1cncn12` [Ff-142, (4-aminoimidazo[1,5-a]pyrido[3,4-e]pyrazin-8-yl)((3R,5S)-3-methyl-5-(5-(trifluoromethyl)pyridin-2-yl)morpholino)methanone], the figure is below 100 nM.
For `COc1cc(C(F)(F)F)ccc1C1CCCCN1C(=O)c1cc2c(cc1F)nc(N)c1cncn12` (stereo not shown) [Ff-143, (4-amino-7-fluoroimidazo[1,5-a]quinoxalin-8-yl)(2-(2-methoxy-4-(trifluoromethyl)phenyl)piperidin-1-yl)methanone], under setting [1], the CC50 was in the range of 100 to 1000 nM.
In the case of `CN(C(=O)c1cc2c(cc1F)nc(N)c1cncn12)[C@@H]1COc2cc(-c3cnn(C4COC4)c3)ccc21` [Ff-145, (S)-4-amino-7-fluoro-N-methyl-N-(6-(1-(oxetan-3-yl)-1H-pyrazol-4-yl)-2,3-dihydrobenzofuran-3-yl)imidazo[1,5-a]quinoxaline-8-carboxamide], the CC50 under setting [1] was below 100 nM.
Same read-out and setting: as for `CC(C)N(Cc1ccc(-c2cnn(-c3ccccn3)c2)cc1F)C(=O)c1cc2c(cc1F)nc(N)c1cncn12` [Ff-147, 4-amino-7-fluoro-N-(2-fluoro-4-(1-(pyridin-2-yl)-1H-pyrazol-4-yl)benzyl)-N-isopropylimidazo[1,5-a]quinoxaline-8-carboxamide], the figure is below 100 nM; as for `CC(C)N(Cc1ccc(-c2cnn(-c3cccnc3)c2)cc1F)C(=O)c1cc2c(cc1F)nc(N)c1cncn12` [Ff-148, 4-amino-7-fluoro-N-(2-fluoro-4-(1-(pyridin-3-yl)-1H-pyrazol-4-yl)benzyl)-N-isopropylimidazo[1,5-a]quinoxaline-8-carboxamide], below 100 nM.
With `Nc1nc2cc(F)c(C(=O)N3CC4(CCC3c3ccc(C(F)(F)F)cn3)CC4)cc2n2cncc12` (stereo not shown) [Ff-149, (4-amino-7-fluoroimidazo[1,5-a]quinoxalin-8-yl)(6-(5-(trifluoromethyl)pyridin-2-yl)-5-azaspiro[2.5]octan-5-yl)methanone], the 50% cytotoxic concentration (CC50) was below 100 nM.
With `CN(C(=O)c1cc2c(cc1F)nc(N)c1cncn12)[C@@H]1COc2cc(-c3cnn4c3COCC4)ccc21` [Ff-150, (S)-4-amino-N-(6-(6,7-dihydro-4H-pyrazolo[5,1-c][1,4]oxazin-3-yl)-2,3-dihydrobenzofuran-3-yl)-7-fluoro-N-methylimidazo[1,5-a]quinoxaline-8-carboxamide], the cytotoxic concentration (CC50) under setting [1] was below 100 nM.
As to `C[C@H](c1ccc(C(F)(F)F)cn1)N(C(=O)c1cc2c(cc1F)nc(N)c1cncn12)C1CC1` [Ff-153, (R)-4-amino-N-cyclopropyl-7-fluoro-N-(1-(5-(trifluoromethyl)pyridin-2-yl)ethyl)imidazo[1,5-a]quinoxaline-8-carboxamide], under setting [1], the CC50 was below 100 nM.
Same read-out and setting: under `CN(C(=O)c1cc2c(cc1F)nc(N)c1cncn12)C1COc2c1ccc1c2OC(F)(F)O1` (stereo not shown) [Ff-156, 4-amino-N-(2,2-difluoro-6,7-dihydro-[1,3]dioxolo[4,5-g]benzofuran-6-yl)-7-fluoro-N-methylimidazo[1,5-a]quinoxaline-8-carboxamide] stands 100 to 1000 nM.
Same read-out and setting: as for `CN(C(=O)c1cc2c(cc1F)nc(N)c1cncn12)C1COc2c1ccc(C(F)(F)F)c2Cl` (stereo not shown) [Ff-158, 4-amino-N-(7-chloro-6-(trifluoromethyl)-2,3-dihydrobenzofuran-3-yl)-7-fluoro-N-methylimidazo[1,5-a]quinoxaline-8-carboxamide], the figure is below 100 nM.
